According to US20230364101A1, “DICLOFENAC PRODRUG AND USE OF THE SAME” (Pumont Biotech Co., Ltd., priority 2022, published 2023):
Converted amounts (≈) assume the structure as drawn.

Assays:
[1] = Solubility test using potassium phosphate buffer at pH 7.4; type: physicochemical; details: 5 mg prodrug in 10 mL potassium phosphate buffer pH 7.4, 37° C., HPLC-UV 254 nm; for solubility at 24 h: potassium phosphate buffer, 37 °C, pH 7.4, aqueous buffer, thermodynamic from solid, read-out: Solubility after 24 hours
Description: First, a respective one of the diclofenac prodrugs of EX5 to EX8 and EX12 was mixed with a potassium phosphate buffer (including 50 mM potassium phosphate, sodium chloride, and water; pH 7.4) and then placed in a constant temperature oscillator at 37° C. for 24 hours so as to dissolve the diclofenac prodrug, thereby obtaining a test sample. After that, the test sample was filtered through a filter having a pore size of 0.22 μm to obtain a filtrate. Next, the filtrate was mixed with acetonitrile in equal amounts, and then subjected to oscillation and centrifugation performed in sequence. The resultant supernatant fraction was subjected to HPLC with UV detection under a wavelength of 254 nm.

[2] = Determination of particle size (D90) after grinding; type: physicochemical; details: after grinding with mortar and homogenizer in 0.125 wt % Tween 20; initial particle size about 60 μm
Description: The solid particles of the diclofenac prodrugs of EX5 and EX8 were subjected to grinding in order to be formulated into a soluble liquid suspension suitable for intraarticular injection. In general, first, the solid particles of diclofenac prodrugs and deionized water were mixed to form a liquid suspension. Next, the liquid suspension was ground using a homogenizer and then subjected to oscillation treatment to obtain a test sample. Then, the test sample was subjected to determination of particle size distribution. Afterwards, the test sample includes solid particles having a size ranging from 20 μm to 30 μm was centrifuged and lyophilized, followed by determination of purity using HLPC. […]
(§1) To be specific, 100 mg of the diclofenac prodrug of EX5 having an initial particle size of about 60 μm was manually ground using a mortar, and then mixed with 2.0 mL of an aqueous solution containing 0.125 wt % of Tween 20 and deionized water, so as to obtain a slurry. […] The thus determined average particle size D90 of the diclofenac prodrug of EX5 was 8.4 μm.
as §1, with “Meanwhile, 102” for “To be specific, 100”, “EX8” for “EX5”, “saline,” for “deionized water,”, “18.2” for “8.4”

Structure (SMILES)	solubility at 24 h [1] [µg/mL]	average particle size D90 [2] [μm]	Solubility after 24 hours [1] [µg/mL]	Solubility after 24 hours ([1]; listed as EX5 (crystalline)) [µg/mL]
O=C(Cc1ccccc1Nc1c(Cl)cccc1Cl)OCOC(=O)N1CCOCC1 [EX5 (amorphous), (2-(2-((2,6-dichlorophenyl)amino)phenyl)acetoxy)methyl morpholine-4-carboxylate]	–	–	4.24 (≈ 9.65 µM)	–
O=C(Cc1ccccc1Nc1c(Cl)cccc1Cl)OCOC(=O)N1CCOCC1 [EX5, (2-(2-((2,6-dichlorophenyl)amino)phenyl)acetoxy)methyl morpholine-4-carboxylate]	–	8.4	–	0.06 (≈ 0.137 µM)
O=C(Cc1ccccc1Nc1c(Cl)cccc1Cl)OCOC(=O)OCC(O)CO (stereo not shown) [EX7, (((2,3-dihydroxypropoxy)carbonyl)oxy)methyl 2-(2-((2,6-dichlorophenyl)amino)phenyl)acetate]	269 (≈ 604 µM)	–	–	–

Continued, in another order:

solubility at 24 h [1] [µg/mL]	Structure (SMILES)	average particle size D90 [2] [μm]	Solubility after 24 hours [1] [µg/mL]	Solubility after 24 hours ([1]; listed as EX5 (crystalline)) [µg/mL]
28.4 (≈ 66.4 µM)	O=C(Cc1ccccc1Nc1c(Cl)cccc1Cl)OCOC(=O)OCCCO [EX8, (((3-hydroxypropoxy)carbonyl)oxy)methyl 2-(2-((2,6-dichlorophenyl)amino)phenyl)acetate]	18.2	–	–
0.33 (≈ 0.681 µM)	CC1(C)OCC(COC(=O)OCOC(=O)Cc2ccccc2Nc2c(Cl)cccc2Cl)O1 (stereo not shown) [EX6, ((((2,2-dimethyl-1,3-dioxolan-4-yl)methoxy)carbonyl)oxy)methyl 2-(2-((2,6-dichlorophenyl)amino)phenyl)acetate]	–	–	–
